Data from publication PMC10700673, “A Smart Intracellular Self‐Assembling Bioorthogonal Raman Active Nanoprobe for Targeted Tumor Imaging” (Advanced Science, 2023).

Legend:
DU145 tumors = assay: ex vivo Raman imaging of excised tumor sections with MCR analysis; format: in vivo, NU/J nude mice
Description: Ex vivo Raman imaging was conducted on the tumor excised from the tumor‐bearing mice at 2 h post‐administration of nanoSABER (Figure 6b–d). To distinguish the probe signal from endogenous autofluorescence and Raman‐active molecules in the tissue matrix, multivariate curve resolution (MCR) analysis was performed on the spectral dataset recorded from the Raman‐mapped tumor sections. MCR is designed to tackle such problems by expressing the original data through a bilinear model of pure component meaningful contributions.^[ [43] ^] Tissue sections were divided into five groups: DU145 control, DU145‐nanoSABER, DU145‐Scr, LNCaP control, and LNCaP‐nanoSABER, with the control group representing mice injected with 100 µL of PBS vehicle. Collected Raman spectra were divided into the above‐mentioned classes. The tumor dataset was also supplemented with spectra from the quartz coverslip and a separate class was created to preclude the impact of background spectral features in the ensuing analysis. […] Since we are particularly interested in the wavenumber features in the cell‐silent region (i.e., the nanoSABER‐specific bands in the otherwise biologically silent spectral region), MCR2 serves as the principal differentiator.
To create a readily interpretable two‐dimensional (2D) visualization plot, we plotted MCR2 scores against that of MCR3, which contains primarily tissue‐characteristic and background features (Figure 6c). […] The highest MCR2 and MCR3 scores for the quartz‐only spectra were used as the lower and upper thresholds, respectively, to depict significant contributions from the individual components. […] This is indicative of a 100% specificity of the nanoSABER probe, without secondary non‐specific spectra from any of the other tumor treatment classes in the ROI. Moreover, 15% of all spectra obtained from mice with DU145 tumors treated with the nanoSABER probe were situated within the ROI, which confirms the high penetration efficiency of the nanoprobes. […]

[1] = in vivo toxicity and biocompatibility; set-up: species or system healthy female rag2 mice; conditions: 7 days after IV 100 µL, 0.0125 mmol kg-1, n = 3
Excerpt: The in vivo toxicity and biocompatibility of nanoSABER were investigated following IV injection of nanoSABER in mice (Figure 7a). […] In addition, we examined various common indicators related to renal function (Figure 7c), liver function (Figure 7d), and bone marrow function (Figure 7e). […] These findings further confirm the biocompatibility and safety of the nanoSABER for in vivo targeted tumor imaging.
Figure 7 a) Schematic illustration of in vivo toxicity and biocompatibility assessment 7 days after IV injection of nanoSABER. b) Histology of major organs excised and stained with H&E for PBS (control) or nanoSABER injection. c) Kidney function test for blood plasma and urine. d) Liver function test for the enzymes aspartate transaminase (AST), alkaline phosphatase (ALP), and alanine transaminase (ALT) in blood plasma. e) Bone marrow function test for red blood cells (RBCs), white blood cells (WBCs), and platelets in blood plasma. All data are presented as mean ± standard deviation, n = 3. p‐Values of <0.001 (***), 0.001 to 0.01 (**), and 0.01 to 0.05 (*) were considered significant.
All animal experiments were carried out under an approved IACUC protocol. The biocompatibility of nanoSABER was evaluated in vivo, using healthy female rag2 mice that were divided into two groups (n = 3 each). […]

LNCaP tumors = assay: in vivo Raman imaging of tumor-bearing mice; set-up: species or system NU/J nude mice; conditions: 2 h after IV injection of 0.0125 mmol kg-1, compared with DU145
Description: (§1) To further evaluate the ability of the nanoSABER probe to delineate legumain‐overexpressing tumors, in vivo Raman imaging of tumors of mice inoculated with DU145 and LNCaP cells was performed (Figure 6a). The Raman images were captured 2 h after the intravenous (IV) injection of the nanoSABER probe. […] Our results validated that nanoSABER experienced tumor legumain‐triggered self‐assembly into alkyne‐dimer nanoparticles that effectively generated distinct and higher Raman signals in DU145 tumors. To validate our findings, we included a control group that received a PBS injection instead of the nanoSABER probes. In both types of tumors, no Raman signal was detected in the control group (Figure S15, Supporting Information), further confirming that the observed signals in the experimental groups were indeed attributable to the legumain‐instructed self‐assembly of alkyne‐dimer nanoparticles.
(§2) All animal experiments were approved by an institutional animal care and use committee (IACUC) protocol. NU/J nude mice (male, 6–8 weeks old) were subcutaneously injected with 1 × 10^6 DU145 or LNCaP cells in the right flank. Once the tumor reached a volume of 100–200 mm^3, mice were IV injected with 0.0125 mmol kg^–1 nanoSABER or PBS (control group). After 2 h, Raman imaging was performed to determine the amount of intracellular self‐assembly within the tumors.

DU145 tumor = assay: in vivo Raman imaging of tumor-bearing mice; set-up: species or system NU/J nude mice; conditions: 2 h after IV injection of 0.0125 mmol kg-1
Description: as §1, §2

Q: What does the source list for “Ac‐Arg‐Arg‐Arg‐Arg‐Arg‐Arg‐Ala‐Ala‐Asn‐Cys(StBu)‐Pra‐Lys‐CBT [nanoSABER]”?
A: average ratio of alkyne to nitrile Raman peak intensity of spectra within the ROI (DU145 tumors; DU145 tumors excised 2 h after IV 0.0125 mmol kg-1): 1.5; share of all spectra situated within the ROI (DU145 tumors; DU145 tumors excised 2 h after IV 0.0125 mmol kg-1, 12 µm cryosections): 15%; specificity (spectra in the ROI of MCR2 versus MCR3 score plot) (DU145 tumors; tumors excised 2 h after IV 0.0125 mmol kg-1, 12 µm cryosections): 100%; renal, liver and bone marrow function parameters ([1]; compared with PBS group): fell within a normal reference range; H&E histology of major organs ([1]; heart, liver, lung, kidney, spleen): no signs of histopathological damage or tissue inflammation; Raman signal intensity within the tumor (LNCaP tumors): significantly weaker; Raman signal of the alkyne peak at 2120 cm-1 in the tumor (DU145 tumor): Intense Raman signal
